Source: patent US5405864A, “Chemotherapeutic maleimides” (Syntex (U.S.A.) Inc., priority 1993, dated 1995)

Experiments:
β1 isozyme of PKC = molecular target: T1, β1 isozyme of PKC (Rattus norvegicus, UniProt P68403); test: Protein kinase C inhibition assay (32P incorporation from γ-32P ATP into synthetic peptide substrate); type: biochemical; conditions: β1 isozyme of PKC from rat brain; 50 μM ATP; five minutes at room temperature
T1 construct: β1 isozyme of PKC from rat brain; from tissue; host or cells: rat brain
Method: In vitro activity for protein kinase C inhibition, is quantitated by measuring incorporation of ^32 P from γ-^32 P ATP into synthetic peptide substrates.
Protein Kinase C (PKC) inhibitory activity is quantitated by measuring incorporation of ^32 P from γ-^32 P ATP into synthetic peptide substrates. The inhibitory potential is measured using the β1 isozyme of PKC from rat brain and the synthetic peptide substrate ala-lys-arg-arg-arg-leu-ser-ser-leu-arg-ala.
A reaction mixture containing 25 mM Tris-HCl, pH 7.5, 2.5 mM Mg(NO3), 1.0 mM EGTA, 20 μM substrate, 1 μg/mL phosphatidylserine (PS), 5×10^-6 M diacylglycerol(di-C8), and 50 μM ATP is spiked with γ-^32 P ATP (>5,000 Ci/mmol) to provide approximately 10^6 CPM per reaction and 0.08 μg/mL PKC in a 50 μl volume per well. The assay is run with or without test compound, added at various concentrations. After five minutes incubation at room temperature, the reaction is stopped by the addition of 0.2V of a 50% TCA solution. A 30 μl sample from each well (control and test compound) is then spotted onto Whatman P-81 ion exchange chromatography paper, and 32-P incorporation is then counted on a Beckman LS 5000 TA liquid scintillation counter. The percent inhibition of PKC activated by […] diC8 and 1 μg/mL phosphatydil serine is determined according to the formula: […]
and the concentration necessary to achieve 50% Inhibition is determined.

breast cell line MDA-N = test: tumor cell growth inhibition in culture, breast cell line MDA-N; type: cell-based; conditions: Homo sapiens, read-out: GI50 (concentration to inhibit tumor cell growth in culture by 50%)
Description: (§1) The compounds of the present invention are protein kinase C inhibitors useful as chemotherapeutic agents for treating mammals, particularly humans, having a variety of malignant disease states including: small cell lung carcinoma, colon carcinoma, breast tumors corresonding to MCF7, MDA-MB-435 and MDA-N cell lines, and PKC overexpressing tumors, such as those corresponding to CHO/PKC-ε. […] For example, 3-[1-(3-isothioureidopropyl)-2-(thianaphthen-2-yl)indol-3-yl]-1H-pyrrole-2,5-dione has a GI50 (concentration to inhibit tumor cell growth in culture by 50%) of […] against breast cell line MDA-N versus 1 μM against colon carcinoma cell line HT-29.

[1] = test system: colon carcinoma cell line HT-29; test: tumor cell growth inhibition in culture, colon carcinoma cell line HT-29; type: cell-based; conditions: Homo sapiens, read-out: GI50 (concentration to inhibit tumor cell growth in culture by 50%)
Description: as §1

[2] = test system: H82 small cell lung carcinoma (SCLC) cells; test: Small Cell Lung Carcinoma Xenograft Assay; type: in vivo, Female athymic nude mice
Method: (§2) In vivo activity for chemotherapeutic agents, particularly for treating malignant diseases, is determined by tumor inhibition assays, for example as described by Maneckjee, et al., in Proc. Natl. Acad. Sci. USA, Vol 89, 1169-1173 (February 1992). Variations of the assay can be performed, e.g., using HT-29 colon carcinoma cells, SCLC H82 cells, CHO/PKC-β and CHO/PKC-ε cells.
This procedure is a modification of a procedure described by Maneckjee, et al., in Proc. Natl. Acad. Sci. USA, Vol 89, 1169-1173 (February 1992).
(§3) H82 small cell lung carcinoma (SCLC) cells are thawed from frozen stock and grown in RPMI. Prior to injection, the cells are trypsinized, counted, and resuspended in PBS:solubilized basement membrane preparation (Matrigel®) (1:2) to concentrations of 5×10^5 or 1.5×10^6 […]. Female athymic nude mice, 4-5 weeks old (Harlan Sprague Dawley) receive 200R/mouse irradiation one day prior to challenge, and are given 0.2 ml SCLC/mouse by subcutaneous injection in the flank (concentrations of 1×10^5 or 3×10^5 SCLC cells/mouse). Groups of 30 mice are treated intraperitoneally, once a day, with test compound at 10 mg/kg (solubilized in DMSO and diluted to final vehicle concentration of 20% DMSO in PBS). Treatments are started 2 hours post-challenge and continue for 45 days. Vehicle treated and untreated mice are used as controls.
(§4) Statistical Analysis: A Fisher Exact test [Kendall M., Stuart A., The Advanced Theory of Statistics, Vol., 2 (MacMillan Pub. Co. N.Y., 1979)] is used to compare tumor occurrence rates between groups. The Mann Whitney U test [Hollander N., Wolfe D. A., Non-parametric Statistical Methods (John Wiley and Sons, Inc., N.Y., 1973)] is used to compare differences in survival time and a log rank test (Kalbfleisch J. D., Prentice R. L., The Statistical Analysis of Failure Time Data (John Wiley and Sons, Inc., N.Y. 1980)] is used to compare the time for each tumor to reach 2000 mm^3.

HT-29 colon cancer cells = test: Colon Carcinoma Xenograft Assay; type: in vivo, Female athymic nude mice
Method: as §2, §3, §4
By following the procedure of Example 18 and substituting H82 small cell lung carcinoma cells with HT-29 colon cancer cells, grown to a concentration of 5×10^6 cells/ml and administered at a concentration of 1×10^6 cells/mouse, activity against colon carcinoma is determined.

[3] = toxicity in mice of the Small Cell Lung Carcinoma Xenograft Assay; type: in vivo, Female athymic nude mice
Method: as §3

T1 sequence (P68403 whole entry): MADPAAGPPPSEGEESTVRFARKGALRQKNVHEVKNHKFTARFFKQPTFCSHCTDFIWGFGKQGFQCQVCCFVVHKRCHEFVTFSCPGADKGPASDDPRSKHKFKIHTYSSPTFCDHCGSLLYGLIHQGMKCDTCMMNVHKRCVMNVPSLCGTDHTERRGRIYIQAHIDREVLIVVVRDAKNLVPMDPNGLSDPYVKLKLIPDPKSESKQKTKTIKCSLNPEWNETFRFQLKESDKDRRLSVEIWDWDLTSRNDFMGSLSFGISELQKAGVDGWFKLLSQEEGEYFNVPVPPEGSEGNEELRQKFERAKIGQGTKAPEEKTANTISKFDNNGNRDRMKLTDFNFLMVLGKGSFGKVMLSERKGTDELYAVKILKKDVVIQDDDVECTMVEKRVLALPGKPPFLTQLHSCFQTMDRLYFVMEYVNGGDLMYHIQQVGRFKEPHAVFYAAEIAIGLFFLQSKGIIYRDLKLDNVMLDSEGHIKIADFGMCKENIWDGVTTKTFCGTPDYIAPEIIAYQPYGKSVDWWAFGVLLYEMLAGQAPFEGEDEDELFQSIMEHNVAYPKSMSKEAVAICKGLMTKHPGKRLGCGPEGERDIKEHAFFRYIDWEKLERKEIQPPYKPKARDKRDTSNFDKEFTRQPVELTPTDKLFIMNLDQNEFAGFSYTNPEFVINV

Row | Compound | IC50 (β1 isozyme of PKC) [nM] | GI50 (breast cell line MDA-N) [nM] | GI50 [1] [nM] | prevention of SCLC tumor formation (in words) ([2]; 10 mg/kg intraperitoneally once a day, 45 days) | inhibition of tumor growth (in words) ([2]; SCLC H82 xenograft, 10 mg/kg intraperitoneally once a day, 45 days) | tumor size, fold smaller than vehicle-treated or untreated control groups ([2]; challenge of 1×10^5 SCLC cells/mouse, 10 mg/kg i.p. once a day) [fold] | median time for the tumor volume to reach 2000 mm^3 ([2]; challenge of 1×10^5 SCLC cells/mouse, 10 mg/kg i.p. once a day, vehicle-treated control Day 35 (p<0.001)) [days] | extension of median time for the tumor volume to reach 2000 mm^3 ([2]; challenge of 1×10^5 SCLC cells/mouse, 10 mg/kg i.p. once a day, vs vehicle-treated control Day 35 (p<0.001)) [days] | tumor size, fold smaller than vehicle-treated or untreated control groups ([2]; challenge of 3×10^5 SCLC cells/mouse, 10 mg/kg i.p. once a day) | median time for the tumor volume to reach 2000 mm^3 ([2]; challenge of 3×10^5 SCLC cells/mouse, 10 mg/kg i.p. once a day, vehicle-treated control Day 31 (p<0.001)) [days] | extension of median time for the tumor volume to reach 2000 mm^3 ([2]; challenge of 3×10^5 SCLC cells/mouse, 10 mg/kg i.p. once a day, vs vehicle-treated control Day 31 (p<0.001)) [days] | number of mice having tumors ≥2000 mm^3 at Day 42 of treatment (in words) ([2]; either challenge level (3×10^5 or 1×10^5 SCLC cells/mouse), 10 mg/kg i.p. once a day, p<0.05) | prevention of HT-29 tumor formation (in words) (HT-29 colon cancer cells; 1×10^6 cells/mouse, procedure of Example 18) | number of mice having tumors ≥2000 mm^3 at Day 42 of treatment (in words) (HT-29 colon cancer cells; HT-29, 1×10^6 cells/mouse, p<0.05) | tumor size, fold smaller than vehicle-treated or untreated control groups (HT-29 colon cancer cells; HT-29, 1×10^6 cells/mouse, procedure of Example 18) | median time for the tumor volume to reach 2000 mm^3 (HT-29 colon cancer cells; HT-29, 1×10^6 cells/mouse, vehicle-treated control Day 33 (p<0.01)) [days] | extension of median time for the tumor volume to reach 2000 mm^3 (HT-29 colon cancer cells; HT-29, 1×10^6 cells/mouse, vs vehicle-treated control Day 33 (p<0.01)) [days] | inhibition of tumor growth (in words) (HT-29 colon cancer cells; HT-29 xenograft, 1×10^6 cells/mouse, 10 mg/kg i.p. once a day (procedure of Example 18)) | toxicity (in words) ([3]; 10 mg/kg intraperitoneally once a day) | LD50 at 144 h ([3]; mouse, in vivo, ip, after 6 days, read-out: chronic LD50) [mg/kg]
1 | NCCCn1c(-c2cc3ccccc3s2)c(C2=CC(=O)NC2=O)c2ccccc21 [3-[1-(3-aminopropyl)-2-(thianaphthen-2-yl)indol-3-yl]-1H-pyrrole-2,5-dione] | 40 | – | – | – | – | – | – | – | – | – | – | – | – | – | – | – | – | – | – | –
2 | N=C(N)SCCCn1c(-c2cc3ccccc3s2)c(C2=CC(=O)NC2=O)c2ccccc21 [3-[1-(3-isothioureidopropyl)-2-(thianaphthen-2-yl)indol-3-yl]-1H-pyrrole-2,5-dione] | 3 | 10 | 1000 | not preventing SCLC tumor formation entirely | did significantly slow tumor growth | ~3 | > 42 | > 7 | approximately 2 fold | 39 | 8 | reduced with either challenge level | not preventing HT-29 tumor formation entirely | reduced | approximately 1.5 fold | 37 | 4 | did significantly slow tumor growth | exhibitied toxicity at 10 mg/kg | ~20
